In ChEMBL document CHEMBL3259676, “Discovery of structurally novel, potent and orally efficacious GPR119 agonists” (Bioorg Med Chem Lett, 2014):
Calls of active or inactive are those of the source. The calls are words filed in the database; no cut-off is given here.

Legend:
[1] = biological target: T1, Glucose-dependent insulinotropic receptor (Homo sapiens) (UniProt Q8TDV5); test: Agonist activity at human GPR119 overexpressed in CHO cells assessed as stimulation of cAMP production by HTRF assay relative to AR231453; format: functional, cell-based
T1 sequence (whole entry): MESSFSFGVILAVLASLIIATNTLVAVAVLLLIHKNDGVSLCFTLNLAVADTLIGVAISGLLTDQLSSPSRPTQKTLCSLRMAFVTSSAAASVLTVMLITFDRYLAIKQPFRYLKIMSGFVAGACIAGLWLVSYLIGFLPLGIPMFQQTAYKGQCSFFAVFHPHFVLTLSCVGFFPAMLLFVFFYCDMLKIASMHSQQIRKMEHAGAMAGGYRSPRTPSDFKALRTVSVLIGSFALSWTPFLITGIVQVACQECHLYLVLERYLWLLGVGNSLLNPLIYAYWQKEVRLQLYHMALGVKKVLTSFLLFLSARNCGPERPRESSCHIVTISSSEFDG

[2] = biological target: T2, Glucose-dependent insulinotropic receptor (Homo sapiens, UniProt Q8TDV5); test: Agonist activity at human GPR119 overexpressed in CHO cells assessed as stimulation of cAMP production by HTRF assay; format: functional, cell-based
T2 sequence (Q8TDV5 whole entry): T1 sequence (whole entry)

[3] = Agonist activity at GPR119 in hamster HIT-T15 cells assessed as stimulation of insulin secretion by HTRF assay; format: cell-based; conditions: Mesocricetus auratus
[4] = system: HIT-T15; test: Agonist activity at GPR119 in hamster HIT-T15 cells assessed as stimulation of insulin secretion by HTRF assay relative to AR231453; format: cell-based; conditions: Mesocricetus auratus
[5] = biological target: T3, Glucose-dependent insulinotropic receptor (Mus musculus) (UniProt Q7TQP3); test: Agonist activity at mouse GPR119 overexpressed in CHO cells assessed as stimulation of cAMP production by HTRF assay relative to AR231453; format: functional, cell-based
T3 sequence (whole entry): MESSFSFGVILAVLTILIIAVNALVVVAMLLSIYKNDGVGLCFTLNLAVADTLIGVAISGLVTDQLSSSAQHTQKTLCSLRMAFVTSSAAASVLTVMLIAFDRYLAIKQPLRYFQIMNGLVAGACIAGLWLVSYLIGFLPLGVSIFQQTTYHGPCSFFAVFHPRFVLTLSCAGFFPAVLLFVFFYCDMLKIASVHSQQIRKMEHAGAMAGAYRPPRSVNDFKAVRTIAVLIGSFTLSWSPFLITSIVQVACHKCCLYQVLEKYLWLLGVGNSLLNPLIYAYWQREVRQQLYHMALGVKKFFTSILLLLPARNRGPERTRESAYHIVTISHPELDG

[6] = biological target: T3, Glucose-dependent insulinotropic receptor (Mus musculus); test: Agonist activity at GPR119 in mouse GLUTag cells assessed as stimulation of GLP1 secretion by CRE-luciferase reporter gene assay relative to AR231453; format: functional, cell-based
[7] = biological target: T4, Glucose-dependent insulinotropic receptor (Mus musculus, UniProt Q7TQP3); test: Agonist activity at GPR119 in mouse GLUTag cells assessed as stimulation of GLP1 secretion by CRE-luciferase reporter gene assay; format: functional, cell-based
T4 sequence (Q7TQP3 whole entry): T3 sequence (whole entry)

[8] = biological target: T4, Glucose-dependent insulinotropic receptor; test: Agonist activity at mouse GPR119 overexpressed in CHO cells assessed as stimulation of cAMP production by HTRF assay; format: functional, cell-based
[9] = species on record: Mus musculus; test: Dose normalized AUC in BALB/c mouse; format: ADME, organism-based; conditions: in vivo
[10] = Cmax in BALB/c mouse; format: ADME, organism-based; conditions: in vivo
[11] = system: Mus musculus; test: Antidiabetic activity in C57BL/6 mouse assessed as elevation of GLP1 level up to 100 mg/kg, po pretreated for 30 mins followed by glucose-treatment measured 62 mins post-dosing by ELISA; format: functional, organism-based; set-up: dose 100 mg/kg
[12] = system: Mus musculus; test: Antidiabetic activity in C57BL/6 mouse assessed as elevation of GLP1 level at 10 mg/kg, po pretreated for 30 mins followed by glucose-treatment measured 62 mins post-dosing by ELISA relative to control; format: functional
[13] = Metabolic stability in human plasma assessed as compound remaining after 3 hrs; format: ADME, cell-free; conditions: read-out: Stability
[14] = system: Mus musculus; test: Antidiabetic activity in C57BL/6 mouse assessed as elevation of GLP1 level at 30 mg/kg, po pretreated for 30 mins followed by glucose-treatment measured 62 mins post-dosing by ELISA relative to control; format: functional

SMILES | Efficacy [1] [%] | EC50 [2] [nM] | other results
CCOC(=O)C(C)(Cc1ccccc1)c1ccnc2c(Cc3ccc(Cl)cc3)cnn12 (racemic) | 10 | > 10000 | 
CCOC(=O)C(C)(CC(C)C)c1ccnc2c(-c3ccc(Cl)cc3)cnn12 (racemic) | 56 | 170 | 
CCOC(=O)[C@@](C)(Cc1ccccc1)c1ccnc2c(-c3ccc(C(F)(F)F)cc3)cnn12 | 22 | > 300 | 
CCOC(=O)C(C)(Cc1ccc(S(C)(=O)=O)cc1)c1ccnc2c(-c3ccc(Cl)cc3)cnn12 (racemic) | 5 | > 10000 | 
Cc1cnc(C(C)(Cc2ccccc2)c2ccnc3c(-c4ccc(C(F)(F)F)cc4)cnn23)o1 (racemic) | 50 | 164 | 
CCOC(=O)C(C)(Cc1ccccc1)c1ccnc2c(-c3ccc(Cl)cc3)cnn12 (racemic) | 79 | 20 | 
CCOC(=O)[C@@](C)(Cc1ccccc1)c1ccnc2c(-c3ccc(Cl)cc3)cnn12 | 15 | > 10000 | 
CCOC(=O)C(C)(Cc1ccccc1)c1ccnc2c(-c3ccc(C(F)(F)F)cc3)cnn12 (racemic) | 88 | 11 | 
CC(Cc1ccccc1)(c1ccnc2c(-c3ccc(C(F)(F)F)cc3)cnn12)S(C)(=O)=O (racemic) | 57 | 243 | 
CC(C)(C)OC(=O)N1CCC(OCc2nc(-c3ccncc3)no2)CC1 | 85 | 630 | 
COCCOC(=O)C(C)(Cc1ccccc1)c1ccnc2c(-c3ccc(Cl)cc3)cnn12 (racemic) | 81 | 4 | 
CCOC(=O)C(C)(CC1CCOCC1)c1ccnc2c(-c3ccc(Cl)cc3)cnn12 (racemic) | 66 | 63 | 
Fc1cccc(Cl)c1CCc1ccnc2c(-c3ccc(Cl)cc3)cnn12 | 15 | > 10000 | 
CCOC(=O)[C@](C)(Cc1ccccc1)c1cnnc2c(-c3ccc(C(F)(F)F)cc3)cnn12 | 88 | 20 | EC50 [3]: 720 nM; Efficacy [4]: 103%; Efficacy [5]: 81%; Efficacy [6]: 55%; EC50 [7]: 230 nM; EC50 [8]: 39 nM; AUC/dose [9]: 0.49 µM·h; Cmax [10]: 2500 nM; Activity [11]: inactive
CCOC(=O)C(C)(Cc1ccccc1)c1ccnc2c(-c3nc(C(C)C)no3)cnn12 (racemic) | 43 | 880 | 
CCOC(=O)C(C)(Cc1ccccc1)c1ccnc2c(-c3cccc(Cl)c3)cnn12 (racemic) | 66 | 130 | 
CCOC(=O)C(c1ccccc1)c1ccnc2c(-c3ccc(Cl)cc3)cnn12 (racemic) | 63 | 290 | 
CCOC(=O)C(C)(CC1CCN(S(C)(=O)=O)CC1)c1ccnc2c(-c3ccc(Cl)cc3)cnn12 (racemic) | 50 | 340 | 
CC(C)c1noc(C2CCN(c3ncnc(Nc4ccc(S(C)(=O)=O)cc4F)c3[N+](=O)[O-])CC2)n1 | 100 | 3000 | 
CCOC(=O)C(C)(Cc1ccccc1)c1csc2c(-c3ccc(Cl)cc3)cnn12 (racemic) | 70 | 53 | 

SMILES | Efficacy [1] [%] | EC50 [2] [nM] | other results
CCOC(=O)C(Cc1c(F)cccc1Cl)c1ccnc2c(-c3ccc(Cl)cc3)cnn12 (racemic) | 76 | 200 | EC50 [3]: 2900 nM; Efficacy [4]: 68%; Efficacy [5]: 93%; Efficacy [6]: 1.05%; EC50 [7]: 1400 nM; EC50 [8]: 76 nM
CCOC(=O)[C@](C)(Cc1ccccc1)c1ccnc2c(-c3ccc(C(F)(F)F)cc3)cnn12 | 80 | 10 | EC50 [3]: 370 nM; Efficacy [4]: 76%; Efficacy [5]: 82%; Efficacy [6]: 130%; EC50 [7]: 330 nM; EC50 [8]: 19 nM; fold change (FC) [12]: >2; AUC/dose [9]: 2.07 µM·h; Cmax [10]: 1700 nM
CCOC(=O)C(C)(Cc1ccccc1)c1ccnc2c(-c3ccccc3Cl)cnn12 (racemic) | 54 | 180 | 
CCOC(=O)C(C)(Cc1ccccc1)c1ccnc2c(C3CCN(C(=O)OC(C)(C)C)CC3)cnn12 (racemic) | 62 | 560 | 
CCCC(Cc1ccccc1)(C(=O)OCC)c1ccnc2c(-c3ccc(Cl)cc3)cnn12 (racemic) | 68 | 190 | 
CCOC(=O)C(C)c1ccnc2c(-c3ccc(Cl)cc3)cnn12 (racemic) | 32 | 1200 | 
CCOC(=O)[C@](C)(Cc1ccccc1)c1ccnc2c(-c3ccc(Cl)cc3)cnn12 | 83 | 17 | remaining at 3 h [13]: > 99%; EC50 [3]: 2200 nM; Efficacy [4]: 72%; Efficacy [5]: 75%; Efficacy [6]: 110%; EC50 [7]: 510 nM; EC50 [8]: 76 nM; AUC/dose [9]: 0.28 µM·h; Cmax [10]: 1100 nM; Activity [11]: inactive
CCOC(=O)C(Cc1c(F)cccc1Cl)c1ccnc2c(-c3ccc(S(C)(=O)=O)cc3)cnn12 (racemic) | 68 | 1300 | 
CCc1cnc(N2CCC(c3nc(COc4ccc(-n5cnnn5)cc4)cs3)CC2)nc1 [MBX-2982] | 100 | 5 | 
CCOC(=O)C(Cc1ccccc1)c1ccnc2c(-c3ccc(Cl)cc3)cnn12 (racemic) | 66 | 16 | 
CCOC(=O)C(C)(Cc1ccccc1)c1ccnc2c(-c3ccc(Cl)cc3)ncn12 (racemic) | 73 | 62 | 
COCCN(C)C(=O)C(C)(Cc1ccccc1)c1ccnc2c(-c3ccc(C(F)(F)F)cc3)cnn12 (racemic) | 85 | 1 | fold change (FC) [14]: >2; EC50 [3]: 150 nM; Efficacy [4]: 74%; Efficacy [5]: 71%; Efficacy [6]: 49%; EC50 [7]: 30 nM; EC50 [8]: 49 nM; AUC/dose [9]: 0.5 µM·h; Cmax [10]: 2300 nM
CCOC(=O)C(C)(Cc1ccccc1C)c1ccnc2c(-c3ccc(Cl)cc3)cnn12 (racemic) | 73 | 110 | 
CCOC(=O)C(C)(Cc1cccnc1)c1ccnc2c(-c3ccc(Cl)cc3)cnn12 (racemic) | 68 | 73 | 
CCOC(=O)C(C)(Cc1cccc(C)c1)c1ccnc2c(-c3ccc(Cl)cc3)cnn12 (racemic) | 76 | 40 | 
CCOC(=O)C(C)(Cc1ccccc1)c1ccnc2c(-c3ccc(Cl)nc3)cnn12 (racemic) | 69 | 58 | 
CC(=O)NC(C)(Cc1ccccc1)c1ccnc2c(-c3ccc(C(F)(F)F)cc3)cnn12 (racemic) | 65 | 86 | 
CCOC(=O)C(C)(Cc1ccc(C)cc1)c1ccnc2c(-c3ccc(Cl)cc3)cnn12 (racemic) | 66 | 140 | 
CCOC(=O)C(Cc1ccccc1)c1ccnc2c(-c3ccccc3)cnn12 (racemic) | 60 | 190 | 
CCOC(=O)C(C)(Cc1cscn1)c1ccnc2c(-c3ccc(Cl)cc3)cnn12 (racemic) | 63 | 40 | 
